Assays:
PCT [1] = assay: Second library screening for PCT detection, clone supernatants, retest with CTZ-h (Example 4); format: biochemical, human; details: for Signal-to-noise ratio: PCT+/PCT-, MBP-PCT 3.3 ng/ml, CTZ-h; for PCT+: luminescence signal value with MBP-PCT 3.3 ng/ml; for PCT+ / PCT-: large subunit-rSCFV5 12.5 nM, CTZ-h 25 µM, 60 s; for PCT-: luminescence signal value, PBSAD control without PCT
Method: In order to further improve the signal-to-noise ratio and complementary activity of the luciferase dual-antibody complementary activation assay, novel complementary luciferase small subunits were prepared in this example. Large subunit-rSCFV5 fusion protein (SEQ ID NO: 87) was kept unchanged, and the small subunit sequence of the rSCFV18-RB073 fusion protein (SEQ ID NO: 89) were modified by semi-randomization. The theoretical diversity was 6912, the library capacity was 10^6, and 3,000 single clones were picked. The method of protein induction and expression was the same as that in Example 2.
Detection Methods: • (1) The concentration of large subunit-rSCFV5 fusion protein was diluted to 12.5 nM, and 15 µl was added per well; • (2) MBP-PCT fusion protein was diluted to 3.3 ng/ml with PBSAD, and 10 µl was added per well; • (3) HB2151 strain containing plasmids with different small subunit sequences were induced by IPTG at 30°C overnight, then treated with polymyxin B for 1.5h, and centrifuged to collect the supernatant, and 2.5µl supernatant was added per well; • (4) The above three components were slightly mixed, incubated at 37°C for 7 min, and Obuffer 6.37-3 containing Furimazine at a concentration of 25 µM was added, and after 3 min, the luminescence signal value was detected using a bioluminescence detector; and • (5) Clones with RLU higher than 10,000 were picked. The substrate was replaced with CTZ-h substrate for retesting (Obuffer 6.37-3 containing CTZ-h at a concentration of 25 µM was added, and after 60 s, the luminescence signal value was detected using a bioluminescence detector), and a PBSAD control was added to test the signal-to-noise ratio.

PCT [2] = assay: Sensitivity and linear range for PCT detection of preferred small subunits (Example 5); format: biochemical, human; details: for luminescence value: normalized; for Signal-to-noise ratio at 1000 pg/ml: large subunit 8.3~25 nM, small subunit fusion 30~180 nM, CTZ-h 15 µM
Method: Detection Methods: • (1) The concentration of large subunit-rSCFV5 fusion protein was diluted with PBSA to 8.3~25nM, and 15µl was added per well; • (2) MBP-PCT fusion proteins were diluted with PBSAD in a downward gradient starting from 2.5 µg/ml, and 10 µl was added per well; • (3) The rSCFV18-small subunit mutant-containing fusion protein was diluted with PBSA to 30~180 nM, and 15 µl was added per well; • (4) The above three components were slightly mixed, incubated at 37°C for 15 min, and Obuffer 6.37-3 containing CTZ-h at a concentration of 15 µM was added, and the luminescence signal value was immediately detected using a bioluminescence detector (the luminescence value was normalized);

Sequence	Signal-to-noise ratio (PCT [1])	PCT+ (PCT [1])	PCT- (PCT [1])	also measured
VNGWRIFDKKS [RC-242]	5.9	9037	1524	
VEGYRLFDKVS [RC-087]	8.0	6923	861	
VSGYRLFDKVS [RC-208]	6.0	12303	2056	
VSGYRLFDRVW [RC-220]	5.7	6738	1192	
VDGWRLFDKKS [RC-103]	6.5	8672	1337	
VDGYRLFEKVS [RC-263]	7.0	4768	685	luminescence value (PCT [2]; PCT 0.0, background): 5000; luminescence value (PCT [2]; PCT 1 (pg/ml)): 5132; luminescence value (PCT [2]; PCT 3 (pg/ml)): 5234; luminescence value (PCT [2]; PCT 10 (pg/ml)): 5192; luminescence value (PCT [2]; PCT 30 (pg/ml)): 5647; luminescence value (PCT [2]; PCT 100 (pg/ml)): 7134; luminescence value (PCT [2]; PCT 1000 (pg/ml)): 28776; luminescence value (PCT [2]; PCT 10000 (pg/ml)): 240937; luminescence value (PCT [2]; PCT 100000 (pg/ml)): 1556694; luminescence value (PCT [2]; PCT 250000 (pg/ml)): 2230650; Signal-to-noise ratio at 1000 pg/ml (PCT [2]): 5.8
VEGYRLFDRKS [RC-218]	7.9	7242	921	luminescence value (PCT [2]; PCT 0.0, background): 5000; luminescence value (PCT [2]; PCT 1 (pg/ml)): 4937; luminescence value (PCT [2]; PCT 3 (pg/ml)): 4976; luminescence value (PCT [2]; PCT 10 (pg/ml)): 5164; luminescence value (PCT [2]; PCT 30 (pg/ml)): 5701; luminescence value (PCT [2]; PCT 100 (pg/ml)): 7494; luminescence value (PCT [2]; PCT 1000 (pg/ml)): 31585; luminescence value (PCT [2]; PCT 10000 (pg/ml)): 266213; luminescence value (PCT [2]; PCT 100000 (pg/ml)): 1757745; luminescence value (PCT [2]; PCT 250000 (pg/ml)): 2436323; Signal-to-noise ratio at 1000 pg/ml (PCT [2]): 6.3
VSGYRLFDKVS [RC-114]	6.5	6401	982	
VDGYRLFERKS [RC-203]	6.6	10062	1536	
VEGYRLFDKVS [RC-215]	11.2	5972	531	luminescence value (PCT [2]; PCT 0.0, background): 5000; luminescence value (PCT [2]; PCT 1 (pg/ml)): 5095; luminescence value (PCT [2]; PCT 3 (pg/ml)): 5206; luminescence value (PCT [2]; PCT 10 (pg/ml)): 5458; luminescence value (PCT [2]; PCT 30 (pg/ml)): 6156; luminescence value (PCT [2]; PCT 100 (pg/ml)): 7892; luminescence value (PCT [2]; PCT 1000 (pg/ml)): 35231; luminescence value (PCT [2]; PCT 10000 (pg/ml)): 296125; luminescence value (PCT [2]; PCT 100000 (pg/ml)): 1967363; luminescence value (PCT [2]; PCT 250000 (pg/ml)): 2983773; Signal-to-noise ratio at 1000 pg/ml (PCT [2]): 7.0
VDGWRLFERKS [RC-171]	7.6	10309	1363	
VSGYRLFDKVS [RC-178]	9.6	5708	593	luminescence value (PCT [2]; PCT 0.0, background): 5000; luminescence value (PCT [2]; PCT 1 (pg/ml)): 4911; luminescence value (PCT [2]; PCT 3 (pg/ml)): 5152; luminescence value (PCT [2]; PCT 10 (pg/ml)): 5180; luminescence value (PCT [2]; PCT 30 (pg/ml)): 6047; luminescence value (PCT [2]; PCT 100 (pg/ml)): 8378; luminescence value (PCT [2]; PCT 1000 (pg/ml)): 41922; luminescence value (PCT [2]; PCT 10000 (pg/ml)): 350855; luminescence value (PCT [2]; PCT 100000 (pg/ml)): 1664322; luminescence value (PCT [2]; PCT 250000 (pg/ml)): 1858964; Signal-to-noise ratio at 1000 pg/ml (PCT [2]): 8.4
VDGWRLFDKKS [RC-175]	11.8	6953	587	
VSGYRLFDKKS [RC-187]	7.9	11049	1405	luminescence value (PCT [2]; PCT 0.0, background): 5000; luminescence value (PCT [2]; PCT 1 (pg/ml)): 4944; luminescence value (PCT [2]; PCT 3 (pg/ml)): 4968; luminescence value (PCT [2]; PCT 10 (pg/ml)): 5099; luminescence value (PCT [2]; PCT 30 (pg/ml)): 5570; luminescence value (PCT [2]; PCT 100 (pg/ml)): 7032; luminescence value (PCT [2]; PCT 1000 (pg/ml)): 27642; luminescence value (PCT [2]; PCT 10000 (pg/ml)): 214329; luminescence value (PCT [2]; PCT 100000 (pg/ml)): 910908; luminescence value (PCT [2]; PCT 250000 (pg/ml)): 1012760; Signal-to-noise ratio at 1000 pg/ml (PCT [2]): 5.5
VEGYRIFEKKW [RC-286]	11.4	5003	438	luminescence value (PCT [2]; PCT 0.0, background): 5000; luminescence value (PCT [2]; PCT 1 (pg/ml)): 4670; luminescence value (PCT [2]; PCT 3 (pg/ml)): 4645; luminescence value (PCT [2]; PCT 10 (pg/ml)): 4833; luminescence value (PCT [2]; PCT 30 (pg/ml)): 5406; luminescence value (PCT [2]; PCT 100 (pg/ml)): 6696; luminescence value (PCT [2]; PCT 1000 (pg/ml)): 27596; luminescence value (PCT [2]; PCT 10000 (pg/ml)): 236023; luminescence value (PCT [2]; PCT 100000 (pg/ml)): 1443932; luminescence value (PCT [2]; PCT 250000 (pg/ml)): 2007480; Signal-to-noise ratio at 1000 pg/ml (PCT [2]): 5.5
VEGYRLFEKIS [RC-036]	5.5	8563	1565	
VNGWRLFDKKS [RC-271]	5.0	7132	1428	
VSGYRLFDKKS [RC-134]	7.7	9409	1223	
VEGWRLFDRVS [RC-237]	5.0	10821	2186	
VSGWRIFDRKS [RC-041]	4.7	11789	2495	
VEGWRIFERKW [RC-070]	5.2	8980	1715	

Sequence	Signal-to-noise ratio (PCT [1])	PCT+ (PCT [1])	PCT- (PCT [1])	also measured
VEGYRLFEKIS [RC-239]	6.0	10022	1676	
VSGYRLFDRKS [RC-098]	5.1	8666	1698	
VDGWRLFDKKS [RC-224]	9.2	10561	1142	luminescence value (PCT [2]; PCT 0.0, background): 5000; luminescence value (PCT [2]; PCT 1 (pg/ml)): 5021; luminescence value (PCT [2]; PCT 3 (pg/ml)): 5002; luminescence value (PCT [2]; PCT 10 (pg/ml)): 5260; luminescence value (PCT [2]; PCT 30 (pg/ml)): 5685; luminescence value (PCT [2]; PCT 100 (pg/ml)): 7341; luminescence value (PCT [2]; PCT 1000 (pg/ml)): 28543; luminescence value (PCT [2]; PCT 10000 (pg/ml)): 240337; luminescence value (PCT [2]; PCT 100000 (pg/ml)): 1453897; luminescence value (PCT [2]; PCT 250000 (pg/ml)): 1856339; Signal-to-noise ratio at 1000 pg/ml (PCT [2]): 5.7
VEGWRLFDRKS [RC-232]	5.8	18313	3183	
VSGYRIFDKKS [RC-044]	8.0	10392	1302	
VEGYRLFERKS [RC-145]	10.1	8198	808	
VEGYRLFEKVS [RC-042]	9.7	5769	593	
VSGYRLFDRVS [RC-032]	4.8	9519	1998	
VSGYRLFDKKW [RC-261]	4.5	7217	1616	
VEGYRLFEKIS [RC-082]	5.8	12852	2232	
VSGYRIFEKKS [RC-152]	5.6	9688	1715	
VSGYRLFDRKS [RC-018]	6.6	13188	1998	
VSGYRIFEKKS [RC-129]	5.8	12040	2068	
VSGYRLFDRKW [RC-033]	10.4	8509	820	
VEGYRLFDKVS [RC-247]	8.8	4398	497	
VSGYRIFEKKW [RC-113]	5.3	6207	1176	
VSGWRIFDKKS [RC-124]	7.5	9280	1234	
VSGYRIFERKW [RC-206]	5.9	7413	1260	
VSGYRLFDRKS [RC-228]	5.4	16339	3000	
VEGYRLFERKS [RC-105]	5.0	14534	2934	
